# Laboratory results reported in PubChem BioAssay AID1918945 (Molecular Pharmacology Branch, DTP, NCI, 2023).
# Test system: 883617-216-R-J1-PDC complex spheroid viability
# Assay: Anticancer human tumor 883617-216-R-J1-PDC patient-derived bladder carcinoma cell line growth inhibition
# Details: for IC50: curve of first compound; for viability, T/C: stronger effect = lower value
# Text: Multicellular complex tumor spheroid response to LSD1 Inhibitor Iadademstat in combination with a variety of drugs and investigational agents in selected tumor cell lines
# The current study was undertaken to assess response to LSD1 inhibitors in combination with standard-of-care drugs and investigational agents in solid tumor complex spheroid models as well as in the K-562 leukemia. Complex spheroids include a stromal component modeled by human endothelial cells (HUVEC) and fibroblasts modeled by human mesenchymal stem cells (MSCs). The concentration ranges selected for each drug and investigational agent were based upon clinically achievable concentrations if the clinical Cmax of the agent was known.
# Compounds. The drugs and investigational agents used in this study are listed on Table 1. All of the agents used, including staurosporine (NSC755774) and gemcitabine (NSC613327), were obtained from the Developmental Therapeutics Program, NCI. FDA-approved anticancer drugs are available from the NCI at http://dtp.nci.nih.gov/branches/dscb/oncology_drugset_explanation.html. Drugs and investigational agents were >95% pure by proton nuclear magnetic resonance (NMR) and liquid chromatography/mass spectrometry (LC/MS). Stock solutions were prepared at 400x in DMSO, stored at -70 degrees C, and diluted in fresh medium prior to their use. The final concentration of DMSO in cell culture wells never exceeded 0.25% (v/v). The FDA-approved anticancer drug set is available from the Developmental Therapeutics Program at https://dtp.cancer.gov/organization/dscb/obtaining/available_plates.htm. All drugs and investigational agents were tested over a range starting from a high concentration at or near the clinical Cmax and decreasing in half-log increments. If the clinical Cmax for an agent had not been determined, the highest concentration tested was 10 microM.
# Cell Lines. The patient-derived cancer cell (PDC) lines: 292921-168-R-J2-PDC, K24384-001-R-PDC, and 521955-158-R2-J5-PDC pancreatic carcinomas, 556581-035-R-J1 ovarian carcinoma, 324938-238-R-J1-PDC, 855422-203-R-J1-PDC and 883617-216-R-J1-PDC urothelial bladder carcinomas, 743489-274-T-PDC renal cell carcinoma, 138582-R-J1 Merkel cell tumor, K60290-347-R-J1 and K57222-313-R-J1-PDC glioblastomas, 653999-131-R-J2-PDC, LG0703-F948-PDC, and 349418-098-R-PDC non-small cell lung carcinomas, 885512-296-R-J2-PDC, 171881-019-R-J1-PDC breast carcinomas and 186277-243-T-J2-PDC and 233499-124-R-J2-PDC colon carcinomas were obtained from the NCI Patient-Derived Models Repository (PDMR, https://pdmr.cancer.gov). The established cell lines NCI/ADR-RES (RRID:CVCL_14520 and OVCAR-5 (RRID:CVCL_1628) ovarian carcinomas, 786-O (RRID:CVCL_1051) and A498 (RRID:CVCL_A498) renal cell carcinoma, NCI-H211 (ATCC, cat. CRL-5824; RRID:CVCL_1529), NCI-H196 (ATCC, cat. CRL-5823, RRID:CVCL_1509), SW 1271 (ATCC, cat. CRL-2177, RRID:CVCL_1716) and NCI-H1876 (ATCC, cat. CRL-5902, RRID:CVCL_1503) small cell lung carcinomas, MDA-MB-231 (RRID:CVCL_0062) and MDA-MB-468 (RRID:CVCL_0419)breast carcinomas (10-12). Pooled donor human umbilical vein endothelial cells (HUVEC, Lonza, cat. CC-2519) and human mesenchymal stem cells (hMSC, Lonza, cat. PT-2501) were purchased from Lonza (Walkersville, MD).
# Cell Culture. All cells were maintained in an incubator at 37 degrees C and 5% CO2 with 95% humidity. The PDC lines were cultured according to standard operating procedures established by the NCI PDMR (https://pdmr.cancer.gov). Briefly all PDCs were thawed and cultured in Matrigel-coated flasks prepared with a working solution of 1X Ham's F-12 nutrient mix, without supplementation (Invitrogen, Waltham, MA, cat. 11765054), 100 U/mL penicillin-streptomycin (Invitrogen, cat. 15140122), and 2.5% Matrigel (Corning Inc., Corning, NY, cat. 354248) for the first three passages. […]
# [1] = second compound 0.1 µM, first compound 0.000949 µM
# [2] = second compound 0.1 µM, first compound 0.003 µM
# [3] = second compound 0.1 µM, first compound 0.00949 µM
# [4] = second compound 0.1 µM, first compound 0.03 µM
# [5] = second compound 0.1 µM, first compound 0.0949 µM
# [6] = second compound 0.1 µM, first compound 0.3 µM
# [7] = second compound 0.316 µM, first compound 0.000949 µM
# [8] = second compound 0.316 µM, first compound 0.003 µM
# [9] = second compound 0.316 µM, first compound 0.00949 µM
# [10] = second compound 0.316 µM, first compound 0.03 µM
# [11] = second compound 0.316 µM, first compound 0.0949 µM
# [12] = second compound 0.316 µM, first compound 0.3 µM
# [13] = second compound 1 µM, first compound 0.000949 µM
# [14] = second compound 1 µM, first compound 0.003 µM
# [15] = second compound 1 µM, first compound 0.00949 µM
# [16] = second compound 1 µM, first compound 0.03 µM
# [17] = second compound 1 µM, first compound 0.0949 µM
# [18] = second compound 1 µM, first compound 0.3 µM
# [19] = second compound 3.16 µM, first compound 0.000949 µM
# [20] = second compound 3.16 µM, first compound 0.003 µM
# [21] = second compound 3.16 µM, first compound 0.00949 µM
# [22] = second compound 3.16 µM, first compound 0.03 µM
# [23] = second compound 3.16 µM, first compound 0.0949 µM
# [24] = second compound 3.16 µM, first compound 0.3 µM
# [25] = second compound 10 µM, first compound 0.000949 µM
# [26] = second compound 10 µM, first compound 0.003 µM
# [27] = second compound 10 µM, first compound 0.00949 µM
# [28] = second compound 10 µM, first compound 0.03 µM
# [29] = second compound 10 µM, first compound 0.0949 µM
# [30] = second compound 10 µM, first compound 0.3 µM
# 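Further: exposure lasted seven days after three days of spheroid growth.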
# 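Wherever viability, T/C is given: 100% = DMSO vehicle control luminescence.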
smiles,measurement,setting,value
CCc1c2c(nc3ccc(O)cc13)-c1cc3c(c(=O)n1C2)COC(=O)[C@]3(O)CC + NC1CC1c1ccc(-c2cccc(O)c2)cc1,IC50,second compound 0.1 µM,< 0.949 nM
same,IC50,second compound 0.316 µM,< 0.949 nM
same,IC50,second compound 1 µM,< 0.949 nM
same,IC50,second compound 3.16 µM,< 0.949 nM
same,IC50,second compound 10 µM,< 0.949 nM
same,"viability, T/C",[1],25.1%
same,"viability, T/C",[2],20.4%
same,"viability, T/C",[3],17.5%
same,"viability, T/C",[4],14%
same,"viability, T/C",[5],0.36%
same,"viability, T/C",[6],0.15%
same,"viability, T/C",[7],25.6%
same,"viability, T/C",[8],21.7%
same,"viability, T/C",[9],19.9%
same,"viability, T/C",[10],13%
same,"viability, T/C",[11],0.27%
same,"viability, T/C",[12],0.12%
same,"viability, T/C",[13],25.8%
same,"viability, T/C",[14],21.6%
same,"viability, T/C",[15],24.4%
same,"viability, T/C",[16],14.2%
same,"viability, T/C",[17],0.38%
same,"viability, T/C",[18],0.88%
same,"viability, T/C",[19],21.6%
same,"viability, T/C",[20],18.4%
same,"viability, T/C",[21],19.6%
same,"viability, T/C",[22],14.4%
same,"viability, T/C",[23],0.18%
same,"viability, T/C",[24],0.15%
same,"viability, T/C",[25],22.1%
same,"viability, T/C",[26],19.7%
same,"viability, T/C",[27],17.4%
same,"viability, T/C",[28],13.8%
same,"viability, T/C",[29],0.25%
same,"viability, T/C",[30],0.21%
Nc1ccn(C2OC(CO)C(O)C2(F)F)c(=O)n1 (stereo not given) + NC1CC1c1ccc(-c2cccc(O)c2)cc1,IC50,second compound 0.1 µM,< 0.949 nM
same,IC50,second compound 0.316 µM,< 0.949 nM
same,IC50,second compound 1 µM,< 0.949 nM
same,IC50,second compound 3.16 µM,< 0.949 nM
same,IC50,second compound 10 µM,< 0.949 nM
same,"viability, T/C",[1],19.4%
same,"viability, T/C",[2],23.2%
same,"viability, T/C",[3],21.9%
same,"viability, T/C",[4],22.2%
same,"viability, T/C",[5],23.6%
same,"viability, T/C",[6],24.9%
same,"viability, T/C",[7],19.8%
same,"viability, T/C",[8],20.6%
same,"viability, T/C",[9],22.8%
same,"viability, T/C",[10],21%
same,"viability, T/C",[11],23.2%
same,"viability, T/C",[12],23%
same,"viability, T/C",[13],22%
same,"viability, T/C",[14],20.8%
same,"viability, T/C",[15],23.4%
same,"viability, T/C",[16],21.5%
same,"viability, T/C",[17],21.1%
same,"viability, T/C",[18],24.4%
same,"viability, T/C",[19],21.9%
same,"viability, T/C",[20],20.8%
same,"viability, T/C",[21],20.6%
same,"viability, T/C",[22],25.6%
same,"viability, T/C",[23],21%
same,"viability, T/C",[24],20.9%
same,"viability, T/C",[25],29.5%
same,"viability, T/C",[26],27.2%
same,"viability, T/C",[27],24.9%
same,"viability, T/C",[28],24.3%
same,"viability, T/C",[29],23.3%
same,"viability, T/C",[30],21.6%
O=C(c1cc(Cc2n[nH]c(=O)c3ccccc23)ccc1F)N1CCN(C(=O)C2CC2)CC1 + NC1CC1c1ccc(-c2cccc(O)c2)cc1,IC50,second compound 0.1 µM,855 nM
same,IC50,second compound 0.316 µM,784 nM
same,IC50,second compound 1 µM,1070 nM
same,IC50,second compound 3.16 µM,526 nM
same,IC50,second compound 10 µM,160 nM
same,"viability, T/C","second compound 0.1 µM, first compound 0.0316 µM",94.1%
same,"viability, T/C","second compound 0.1 µM, first compound 0.1 µM",86.6%
same,"viability, T/C","second compound 0.1 µM, first compound 0.316 µM",72.5%
same,"viability, T/C","second compound 0.1 µM, first compound 1 µM",45.8%
same,"viability, T/C","second compound 0.1 µM, first compound 3.16 µM",37.5%
same,"viability, T/C","second compound 0.1 µM, first compound 10 µM",36.4%
same,"viability, T/C","second compound 0.316 µM, first compound 0.0316 µM",96%
same,"viability, T/C","second compound 0.316 µM, first compound 0.1 µM",87.7%
same,"viability, T/C","second compound 0.316 µM, first compound 0.316 µM",65.5%
same,"viability, T/C","second compound 0.316 µM, first compound 1 µM",46.5%
same,"viability, T/C","second compound 0.316 µM, first compound 3.16 µM",34.9%
same,"viability, T/C","second compound 0.316 µM, first compound 10 µM",31.9%
same,"viability, T/C","second compound 1 µM, first compound 0.0316 µM",91.3%
same,"viability, T/C","second compound 1 µM, first compound 0.1 µM",71.8%
same,"viability, T/C","second compound 1 µM, first compound 0.316 µM",60.8%
same,"viability, T/C","second compound 1 µM, first compound 1 µM",59.5%
same,"viability, T/C","second compound 1 µM, first compound 3.16 µM",33.5%
same,"viability, T/C","second compound 1 µM, first compound 10 µM",26.9%
same,"viability, T/C","second compound 3.16 µM, first compound 0.0316 µM",93.3%
same,"viability, T/C","second compound 3.16 µM, first compound 0.1 µM",84.1%
same,"viability, T/C","second compound 3.16 µM, first compound 0.316 µM",53.7%
same,"viability, T/C","second compound 3.16 µM, first compound 1 µM",42.1%
same,"viability, T/C","second compound 3.16 µM, first compound 3.16 µM",35.9%
same,"viability, T/C","second compound 3.16 µM, first compound 10 µM",25.5%
same,"viability, T/C","second compound 10 µM, first compound 0.0316 µM",58%
same,"viability, T/C","second compound 10 µM, first compound 0.1 µM",53.4%
same,"viability, T/C","second compound 10 µM, first compound 0.316 µM",47.1%
same,"viability, T/C","second compound 10 µM, first compound 1 µM",38%
same,"viability, T/C","second compound 10 µM, first compound 3.16 µM",31.1%
same,"viability, T/C","second compound 10 µM, first compound 10 µM",26.5%
